Measurements reported in publication PMC4880513 (Journal of natural products, 2015).
Entries after “also recorded” stand apart in the source; their conditions may differ. Read-outs that look alike come from different tables or passages of the source. Marks after values point to notes of the source that are not given here.

Columns and labels:
Male Swiss Webster mice [1] = assay: mouse tetrad assay: overall cannabimimetic action; conditions: ip, result in words
Male Swiss Webster mice [2] = assay: mouse tetrad assay: locomotor activity; conditions: for hypolocomotive activity: ip, across doses, result in words; for locomotor activity: total photobeam interruptions, last 10 min of 30 min, mean ± SEM
[3] = target: full-length human cannabinoid-1 receptor (Homo sapiens, UniProt P21554); conditions: radioligand binding
CB2 receptor = CB2 receptor (Homo sapiens, UniProt P34972); assay: functional assays at CB2 receptor; format: biochemical; conditions: result in words
CB1 receptor = CB1 receptor (Homo sapiens, UniProt P21554); assay: functional assays at CB1 receptor; format: biochemical; conditions: result in words
[4] = target: full-length human cannabinoid-2 receptor (Homo sapiens, UniProt P34972); assay: CB2 receptor radioligand binding assay
Male Swiss Webster mice [5] = assay: mouse tetrad assay: rectal temperature; conditions: difference between basal and postinjection temperatures, mean ± SEM
Male Swiss Webster mice [6] = assay: mouse tetrad assay: catalepsy; conditions: latency to drop, cutoff 180 s, mean ± SEM
Male Swiss Webster mice [7] = assay: mouse tetrad assay: tail-flick latency; conditions: cutoff 15 s, mean ± SEM
Male Swiss Webster mice [8] = assay: mouse tetrad assay: hot-plate latency; conditions: cutoff 45 s, mean ± SEM

Sequence of CB1 receptor (P21554 whole entry): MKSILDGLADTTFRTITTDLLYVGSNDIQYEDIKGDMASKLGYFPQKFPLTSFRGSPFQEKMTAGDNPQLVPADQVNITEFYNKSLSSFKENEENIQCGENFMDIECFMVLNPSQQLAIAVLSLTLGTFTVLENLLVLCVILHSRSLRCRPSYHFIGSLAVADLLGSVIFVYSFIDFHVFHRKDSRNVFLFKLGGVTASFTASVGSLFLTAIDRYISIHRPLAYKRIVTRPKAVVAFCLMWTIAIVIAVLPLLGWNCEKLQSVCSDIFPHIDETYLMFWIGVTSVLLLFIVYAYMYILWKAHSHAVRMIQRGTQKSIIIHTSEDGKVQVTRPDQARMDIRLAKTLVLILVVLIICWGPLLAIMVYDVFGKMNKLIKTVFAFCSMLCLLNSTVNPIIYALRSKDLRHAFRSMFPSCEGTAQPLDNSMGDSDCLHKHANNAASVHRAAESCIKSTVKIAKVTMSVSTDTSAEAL
Sequence of full-length human cannabinoid-1 receptor (P21554 whole entry): as above
Sequence of full-length human cannabinoid-2 receptor (P34972 whole entry): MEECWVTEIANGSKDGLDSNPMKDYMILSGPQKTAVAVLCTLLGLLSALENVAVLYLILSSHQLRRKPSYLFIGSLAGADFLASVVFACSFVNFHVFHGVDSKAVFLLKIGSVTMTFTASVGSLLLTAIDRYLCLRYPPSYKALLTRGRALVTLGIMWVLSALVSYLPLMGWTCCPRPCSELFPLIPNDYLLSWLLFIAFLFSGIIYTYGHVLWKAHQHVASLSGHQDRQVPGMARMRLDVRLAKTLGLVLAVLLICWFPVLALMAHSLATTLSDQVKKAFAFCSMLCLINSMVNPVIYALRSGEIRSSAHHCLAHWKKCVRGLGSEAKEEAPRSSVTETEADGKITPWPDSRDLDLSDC
Sequence of CB2 receptor (P34972 whole entry): as above

`CCCCCc1cc(O)c2c(c1)OC(C)(C)[C@@H]1C[C@H](O)C(C)=C[C@@H]21` [Compound 1, 8α-hydroxy-Δ^9-tetrahydrocannabinol] was tested, and the “cannabimimetic activity in the mouse tetrad assay” value (Male Swiss Webster mice [1]; dose of 20 mg/kg) was “did not exhibit typical cannabimimetic activity”.

With `CCCCCc1cc(O)c2c(c1)OC(C)(C)[C@@H]1C[C@@H](O)C(C)=C[C@@H]21` [Compound 2, 8β-hydroxy-Δ^9-tetrahydrocannabinol] the hypolocomotive activity (Male Swiss Webster mice [2]) was “dose-dependent hypolocomotive effect only”, the hypolocomotive activity (Male Swiss Webster mice [2]; listed as compound 2) was “significant dose-dependent hypolocomotive activity” and the “cannabimimetic-like action in the mouse tetrad assay” value (shortened to “cannabimimetic-like action”) (Male Swiss Webster mice [1]; at the doses tested) was “lacked any cannabimimietic activity”. For the same molecule, the “cannabimimetic-like action” value (Male Swiss Webster mice [1]; doses up to 20 mg/kg) was “lacked typical cannabimimetic-like action”.

For `CCCCCc1cc(O)c2c(c1)OC(C)(C)[C@@H]1CC=C(C)[C@H](O)[C@@H]21` [Compound 3, 10α-hydroxy-Δ^8-tetrahydrocannabinol], the “binding affinity (nM) CB1” value [3] was “nearly as tightly as THC”, the “binding affinity (nM) CB1” value ([3]; listed as compound 3) was “highest affinity” and the “functional activity at CB2 receptor” value (CB2 receptor) was “partial agonist”. The “functional activity at CB1 receptor” value (CB1 receptor) was “partial agonist”, the “functional activity at CB1 receptor” value (CB1 receptor; listed as compound 3) was “partial CB1 agonist” and the “binding affinity (nM) CB2” value [4] was “nearly as tightly as THC”. For the same molecule, the “cannabimimetic-like action” value (Male Swiss Webster mice [1]; at the doses tested) was “most potent cannabimimetic-like actions; also recorded: typical cannabimimetic actions”.

With `CCCCCc1cc(O)c2c(c1)OC(C)(C)[C@@H]1CC=C(C)[C@@H](O)[C@@H]21` [Compound 4, 10β-hydroxy-Δ^8-tetrahydrocannabinol] the “effects in the mouse tetrad assay” value (Male Swiss Webster mice [1]; 40 mg/kg (highest tested dose), 40 mg/kg) was “hypothermic and antinociceptive activity” and the “cannabimimetic-like action” value (Male Swiss Webster mice [1]; at the doses tested) was “partial cannabimimetic action”.

For `CCCCCc1cc(O)c2c(c1)OC(C)(C)[C@@H]1CC[C@@]3(C)O[C@H]3[C@@H]21` [Compound 6, 9β,10β-epoxyhexahydrocannabinol], the “cannabimimetic-like action” value (Male Swiss Webster mice [1]; at the doses tested) was “most potent cannabimimetic-like actions”.

For `CCCCCc1cc(O)c2c(c1)OC(C)(C)[C@@H]1CC=C(C)C[C@@H]21` [Δ^8-THC, Δ^8-tetrahydrocannabinol], the “decrease in rectal temperature (°C)” value (Male Swiss Webster mice [5]; 5 mg/kg ip) was 0.12 ± 0.09 °C and the “decrease in rectal temperature (°C)” value (Male Swiss Webster mice [5]; 20 mg/kg ip) was 1.96 ± 0.37 ^a °C.

“(−)-trans-Δ^9-tetrahydrocannabinol [Δ^9-THC]” was tested, and the “catalepsy latency” value (Male Swiss Webster mice [6]; 10 mg/kg ip) was 14.4 ± 4.16 s, the “catalepsy latency (s)” value (Male Swiss Webster mice [6]; 20 mg/kg ip) was 47.9 ± 20.04 ^b s and the “catalepsy latency (s)” value (Male Swiss Webster mice [6]; 40 mg/kg ip) was 37.7 ± 14.64 ^a s. The “decrease in rectal temperature (°C)” value (Male Swiss Webster mice [5]; 10 mg/kg ip) was 2.05 ± 0.25 °C, the “decrease in rectal temperature (°C)” value (Male Swiss Webster mice [5]; 20 mg/kg ip) was 4.25 ± 0.78 ^c °C and the “decrease in rectal temperature (°C)” value (Male Swiss Webster mice [5]; 40 mg/kg ip) was 4.80 ± 0.28 ^c °C. For the same molecule, the “tail-flick latency (% MPE)” value (Male Swiss Webster mice [7]; 10 mg/kg ip) was 6.52 ± 2.00 % MPE, the “tail-flick latency (% MPE)” value (Male Swiss Webster mice [7]; 20 mg/kg ip) was 42.21 ± 17.04 ^b % MPE and the “tail-flick latency (% MPE)” value (Male Swiss Webster mice [7]; 40 mg/kg ip) was 51.96 ± 13.22 ^c % MPE. For the same molecule, the locomotor activity (Male Swiss Webster mice [2]; 10 mg/kg ip) was 190.9 ± 33.8 ^c, the locomotor activity (Male Swiss Webster mice [2]; 20 mg/kg ip) was 276.2 ± 52.6 ^c and the locomotor activity (Male Swiss Webster mice [2]; 40 mg/kg ip) was 194.0 ± 49.2 ^c. For the same molecule, the “hot-plate latency (% MPE)” value (Male Swiss Webster mice [8]; 10 mg/kg ip) was 29.04 ± 5.37 ^c % MPE, the “hot-plate latency (% MPE)” value (Male Swiss Webster mice [8]; 20 mg/kg ip) was 46.85 ± 9.08 ^c % MPE and the “hot-plate latency (% MPE)” value (Male Swiss Webster mice [8]; 40 mg/kg ip) was 38.18 ± 4.05 ^c % MPE.
